Marks after values point to notes of the source that are not given here.
What was measured:
human sEH = human sEH (Homo sapiens (Human), UniProt P34913); test: In vitro determination of sEH inhibition activity (fluorescent assay, CMNPC substrate); type: biochemical; conditions: purified recombinant human sEH, CMNPC 5 μM, 30° C., mean of triplicate
Protocol: Cyano(6-methoxynaphthalen-2-yl)methyl 2-(3-phenyloxiran-2-yl)methylcarbonate (CMNPC); cf. Morisseau, C.; Hammock, B. D. Measurement of soluble epoxide hydrolase (sEH) activity. Curr. Protoc. Toxicol.
The fluorescent assay was used with purified recombinant human or mouse sEH proteins. The enzymes were incubated at 30° C. with the inhibitors ([I]final=0.4-100,000 nM) for 5 min in 100 mM sodium phosphate buffer (200 μL, pH 7.4) containing 0.1 mg/mL of BSA and 1% of DMSO. The substrate (CMNPC) was then added ([S]final=5 μM). […] Results were obtained by regression analysis from a linear region of the curve.

[1] = In vitro determination of microsomal stability; type: in vitro ADME; conditions: human microsomes, 37° C., samples at 0-60 min
Protocol: The human recombinant microsomes employed were purchased from Tebu-Xenotech. […] Samples (75 μL) were taken from each well at 0, 10, 20, 40 and 60 min and transferred to a plate containing 4° C. 75 μL acetonitrile and 30 μL of 0.5% formic acid in water were added for improving the chromatographic conditions. The plate was centrifuged (46000 g, 30 min) and supernatants were taken and analyzed in a UPLC-MS/MS (Xevo-TQD, Waters) by employing a BEH C18 column and an isocratic gradient of 0.1% formic acid in water:0.1% formic acid acetonitrile (60:40). The metabolic stability of the compounds was calculated from the logarithm of the remaining compounds at each of the time points studied.

CD1 mice = test: Seizure assay (pentylenetetrazole, PTZ test); type: in vivo, mouse; conditions: 5 mg/kg by gavage 1 h prior to PTZ 85 mg/Kg s.c., monitored 30 min
Protocol: Test compounds were dissolved in 20% hydroxypropyl-beta-cyclodextrin and concentration was calculated according to the animal weigh to reach the precise dose. Animals were housed in standard care facilities with a 12 hours light-dark cycle with free access to water and food.
To investigate the ability of compounds to cross the blood-brain barrier (BBB), a standard acute test involving the administration of pro-convulsant pentylenetetrazole (PTZ) was employed [Inceoglu et al, PLoS ONE, 2013, 8(12), e80922; WO 2015/148954 A1]. In the test, PTZ was administered at 85 mg/Kg by subcutaneous route, time to onset of first clonic seizure, average of clonic seizures, tonic seizure latency and lethality were monitored for 30 min. Vehicles or compounds were administered by gavage at 5 mg/kg 1 h prior to pro-convulsant.

Chain of human sEH (P34913 whole entry): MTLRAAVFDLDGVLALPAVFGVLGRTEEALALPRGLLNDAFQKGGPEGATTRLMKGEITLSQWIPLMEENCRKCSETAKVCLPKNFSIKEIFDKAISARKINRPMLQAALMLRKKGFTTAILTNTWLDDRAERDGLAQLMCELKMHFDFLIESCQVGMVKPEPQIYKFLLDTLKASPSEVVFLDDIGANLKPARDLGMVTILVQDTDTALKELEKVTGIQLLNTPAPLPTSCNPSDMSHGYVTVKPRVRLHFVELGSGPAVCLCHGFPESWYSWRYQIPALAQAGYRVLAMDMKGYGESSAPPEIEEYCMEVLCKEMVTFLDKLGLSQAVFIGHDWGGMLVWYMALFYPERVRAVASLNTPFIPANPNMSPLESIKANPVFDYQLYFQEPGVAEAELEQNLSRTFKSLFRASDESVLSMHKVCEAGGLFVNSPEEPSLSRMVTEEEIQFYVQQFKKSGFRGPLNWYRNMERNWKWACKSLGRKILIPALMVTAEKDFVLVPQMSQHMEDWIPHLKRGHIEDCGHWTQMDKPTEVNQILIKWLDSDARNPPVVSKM

IC50 (human sEH) | Microsomal stability (% remanent) [1] | melting point | SMILES | Average clonic seizure (CD1 mice) | Mean time to clonic seizure latency (CD1 mice) | Protected from tonic/total (Mortality) (CD1 mice)
0.6 nM | 100% | – | COc1cc2c(cc1OC)C1CC3(F)CC2CC(NC(=O)NC2CCN(C(=O)C4CCOCC4)CC2)(C1)C3 [Example 5, 1-(9-fluoro-2,3-dimethoxy-5,6,8,9,10,11-hexahydro-7H-5,9:7,11-dimethanobenzo[9]annulen-7-yl)-3-(1-(tetrahydro-2H-pyran-4-carbonyl)piperidin-4-yl)urea] | – | – | –
2.9 nM | 0.7% | – | CC(=O)c1ccc(N2CCC(NC(=O)NC34CC5CC(C)(CC(C3)c3ccccc35)C4)CC2)cc1 [Example C12, 1-(1-(4-acetylphenyl)piperidin-4-yl)-3-(9-methyl-5,6,8,9,10,11-hexahydro-7H-5,9:7,11-dimethanobenzo[9]annulen-7-yl)urea] | – | – | –
1.1 nM | 7% | – | CC12CC3CC(NC(=O)Nc4ccc(F)c(F)c4F)(CC(C1)c1ccccc13)C2 [Example C4, 1-(9-methyl-6,7,8,9,10,11-hexahydro-5H-5,9:7,11-dimethanobenzo[9]annulen-7-yl)-3-(2,3,4-trifluorophenyl)urea] | – | – | –
– | – | 128 to 129 °C | COC(=O)c1ccc(C(=O)N2CCC(NC(=O)NC34CC5CC(Cl)(CC(C3)c3ccccc35)C4)CC2)cc1 [Example 15, methyl 4-(4-(3-(9-chloro-5,6,8,9,10,11-hexahydro-7H-5,9:7,11-dimethanobenzo[9]annulen-7-yl)ureido)piperidine-1-carbonyl)benzoate] | – | – | –
– | 1% | – | CC(=O)N1CCC(NC(=O)NC23CC4CC(C)(CC(C2)c2ccccc24)C3)CC1 [Example C1, 1-(1-acetylpiperidin-4-yl)-3-(9-methyl-5,6,8,9,10,11-hexahydro-7H-5,9:7,11-dimethanobenzo[9]annulen-7-yl)urea] | – | – | –
0.5 nM | 100% | 267 to 268 °C | O=C(NC1CCN(c2ccc(C(=O)O)cc2)CC1)NC12CC3CC(F)(CC(C1)c1ccccc13)C2 [Example 13, 4-(4-(3-(9-fluoro-5,6,8,9,10,11-hexahydro-7H-5,9:7,11-dimethanobenzo[9]annulen-7-yl)ureido)piperidin-1-yl)benzoic acid] | – | – | –
– | – | – | CCC(=O)N1CCC(NC(=O)Nc2ccc(OC(F)(F)F)cc2)CC1 [TPPU, N-[1-(1-Oxopropyl)-4-piperidinyl]-N′-[4-(trifluoromethoxy)phenyl]urea, reference compound] | 3.67 | 605.33 s | 5/6****
1.5 nM | 0.1% | – | CC12CC3CC(NC(=O)NC4CCN(Cc5ccccc5)CC4)(CC(C1)c1ccccc13)C2 [Example C5, 1-(1-benzylpiperidin-4-yl)-3-(9-methyl-5,6,8,9,10,11-hexahydro-7H-5,9:7,11-dimethanobenzo[9]annulen-7-yl)urea] | – | – | –
0.4 nM | 88% | 200 °C (dec.) | O=C(NC1CCN(C(=O)c2ccc(C(=O)O)cc2)CC1)NC12CC3CC(Cl)(CC(C1)c1ccccc13)C2 [Example 16, 4-(4-(3-(9-chloro-5,6,8,9,10,11-hexahydro-7H-5,9:7,11-dimethanobenzo[9]annulen-7-yl)ureido)piperidine-1-carbonyl)benzoic acid] | – | – | –
4.7 nM | 0.1% | – | CC12CC3CC(NC(=O)NC4C[C@H]5CC[C@@H](C4)N5Cc4ccccc4)(CC(C1)c1ccccc13)C2 (stereo partly drawn) [Example C2, 1-((1R,3s,5S)-8-benzyl-8-azabicyclo[3.2.1]octan-3-yl)-3-(9-methyl-5,6,8,9,10,11-hexahydro-7H-5,9:7,11-dimethanobenzo[9]annulen-7-yl)urea] | – | – | –
0.4 nM | 42% | 147 to 150 °C | COc1cc2c(cc1OC)C1CC3(Cl)CC2CC(NC(=O)NC2CCN(C(=O)C4CCOCC4)CC2)(C1)C3 [Example 6, 1-(9-chloro-2,3-dimethoxy-5,6,8,9,10,11-hexahydro-7H-5,9:7,11-dimethanobenzo[9]annulen-7-yl)-3-(1-(tetrahydro-2H-pyran-4-carbonyl)piperidin-4-yl)urea] | – | – | –
0.4 nM | 99% | 226 to 227 °C | O=C(NC1CCN(c2ccc(C(=O)O)cc2)CC1)NC12CC3CC(Cl)(CC(C1)c1ccccc13)C2 [Example 14, 4-(4-(3-(9-chloro-5,6,8,9,10,11-hexahydro-7H-5,9:7,11-dimethanobenzo[9]annulen-7-yl)ureido)piperidin-1-yl)benzoic acid] | – | – | –
1.2 nM | 33% | – | COc1ccc2c(c1)C1CC3(C)CC2CC(NC(=O)NC2CCN(C(C)=O)CC2)(C1)C3 (centres unmarked) [Example C10, 1-(1-acetylpiperidin-4-yl)-3-(2-methoxy-9-methyl-5,6,8,9,10,11-hexahydro-7H-5,9:7,11-dimethanobenzo[9]annulen-7-yl)urea] | – | – | –
0.9 nM | 16% | – | CC(=O)N1CCC(NC(=O)NC23CC4CC(C)(CC(C2)c2c(F)cccc24)C3)CC1 (centres unmarked) [Example C9, 1-(1-acetylpiperidin-4-yl)-3-(1-fluoro-9-methyl-5,6,8,9,10,11-hexahydro-7H-5,9:7,11-dimethanobenzo[9]annulen-7-yl)urea] | – | – | –
0.9 nM | 22% | – | CC(=O)N1CCC(NC(=O)NC23CC4CC(C)(CC(C2)c2cc(F)ccc24)C3)CC1 (centres unmarked) [Example C8, 1-(1-acetylpiperidin-4-yl)-3-(2-fluoro-9-methyl-5,6,8,9,10,11-hexahydro-7H-5,9:7,11-dimethanobenzo[9]annulen-7-yl)urea] | – | – | –

SMILES | IC50 (human sEH) | Microsomal stability (% remanent) [1] | melting point | Average clonic seizure (CD1 mice) | Mean time to clonic seizure latency (CD1 mice) | Protected from tonic/total (Mortality) (CD1 mice)
O=C(NC12CC3CC(F)(CC(C1)c1ccccc13)C2)N[C@H]1CC[C@H](Oc2ccc(C(=O)O)cc2)CC1 [Example 1, 4-[((1r,4r)-4-(3-(9-fluoro-5,6,8,9,10,11-hexahydro-7H-5,9:7,11-dimethanobenzo[9]annulen-7-yl)ureido)cyclohexyl)oxy]benzoic acid] | 0.5 nM | 77% | – | – | – | –
